Results published in ChEMBL document CHEMBL5634074, “Azaindole derivatives as potential kinase inhibitors and their SARs elucidation” (Eur J Med Chem, 2023).

Assays:
KG-1 = experiment: cells; conditions: Homo sapiens, KG-1, 72 h
[1] = target: Voltage-gated inwardly rectifying potassium channel KCNH2 (Homo sapiens, UniProt Q12809); experiment: Inhibition of hERG (unknown origin); assay type: toxicity
[2] = target: High affinity nerve growth factor receptor (Homo sapiens, UniProt P04629); experiment: Inhibition of TRKA (unknown origin) by Ambit kinase assay
[3] = Efflux ratio of apparent permeability across basolateral to apical side over apical to basolateral side in dog MDCK-MDR1 cells at 5 uM incubated for 90 mins by LC-MS/MS analysis; assay type: ADME, cell-based, Canis lupus familiaris
Dengue virus = experiment: Antiviral activity against DENV infected in human Huh-7 cells assessed as reduction in viral growth incubated for 72 hrs by flow cytometry; assay type: functional, organism-based; conditions: Huh-7, 72 h
[4] = target: Proto-oncogene tyrosine-protein kinase receptor Ret (Homo sapiens, UniProt P07949); experiment: Inhibition of RET (unknown origin) by DiscoverX KINOMEscan assay
PSN1 = assay type: functional, cell-based; conditions: Homo sapiens, PSN1, 72 h
[5] = target: [Pyruvate dehydrogenase (acetyl-transferring)] kinase isozyme 1, mitochondrial (Homo sapiens, UniProt Q15118); experiment: Inhibition of PDK1 (unknown origin) incubated for 30 mins followed by substrate addition measured after 60 mins in presence of ATP by ADP-Glo luminescent assay
Chain of [Pyruvate dehydrogenase (acetyl-transferring)] kinase isozyme 1, mitochondrial (Q15118 whole entry): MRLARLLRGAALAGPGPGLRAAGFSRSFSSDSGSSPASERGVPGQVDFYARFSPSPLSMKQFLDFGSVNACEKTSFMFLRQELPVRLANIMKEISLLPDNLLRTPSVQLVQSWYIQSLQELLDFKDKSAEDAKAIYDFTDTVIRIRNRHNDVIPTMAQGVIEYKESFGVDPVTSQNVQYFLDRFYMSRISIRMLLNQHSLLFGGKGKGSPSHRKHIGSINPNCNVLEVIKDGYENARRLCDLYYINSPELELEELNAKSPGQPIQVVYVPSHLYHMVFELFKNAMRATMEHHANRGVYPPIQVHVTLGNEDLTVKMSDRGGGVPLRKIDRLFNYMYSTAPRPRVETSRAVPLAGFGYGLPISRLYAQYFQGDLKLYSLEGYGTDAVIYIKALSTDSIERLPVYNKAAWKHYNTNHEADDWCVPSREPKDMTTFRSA

[6] = target: T1, Receptor-interacting serine/threonine-protein kinase 1 (Homo sapiens, UniProt Q13546); experiment: Inhibition of RIPK1 (unknown origin)
T1 sequence (Q13546 whole entry): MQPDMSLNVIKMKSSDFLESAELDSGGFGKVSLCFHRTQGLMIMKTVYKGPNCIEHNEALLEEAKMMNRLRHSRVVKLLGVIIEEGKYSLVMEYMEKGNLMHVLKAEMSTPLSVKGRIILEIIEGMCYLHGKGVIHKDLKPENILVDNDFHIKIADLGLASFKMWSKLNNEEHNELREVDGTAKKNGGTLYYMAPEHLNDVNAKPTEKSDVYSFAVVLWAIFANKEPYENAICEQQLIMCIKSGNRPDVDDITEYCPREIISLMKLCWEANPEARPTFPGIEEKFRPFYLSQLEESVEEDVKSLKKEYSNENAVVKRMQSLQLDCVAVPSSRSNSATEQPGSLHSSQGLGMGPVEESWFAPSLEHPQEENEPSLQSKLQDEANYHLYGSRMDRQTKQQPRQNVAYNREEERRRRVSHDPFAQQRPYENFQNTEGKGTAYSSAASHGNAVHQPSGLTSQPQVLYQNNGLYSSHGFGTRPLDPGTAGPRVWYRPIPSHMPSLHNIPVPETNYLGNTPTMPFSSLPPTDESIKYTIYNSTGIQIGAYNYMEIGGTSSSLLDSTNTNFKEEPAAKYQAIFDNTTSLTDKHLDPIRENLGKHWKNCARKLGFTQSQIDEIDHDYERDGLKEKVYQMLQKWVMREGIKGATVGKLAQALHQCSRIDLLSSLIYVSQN

[7] = target: T1, Receptor-interacting serine/threonine-protein kinase 1; experiment: Inhibition of human RIPK1 by ADP-Glo assay
[8] = target: Receptor-interacting serine/threonine-protein kinase 3 (Homo sapiens, UniProt Q9Y572); experiment: Inhibition of RIPK3 (unknown origin)
[9] = target: Phosphatidylinositol 4,5-bisphosphate 3-kinase catalytic subunit alpha isoform (Homo sapiens, UniProt P42336); experiment: Inhibition of PI3Kalpha (unknown origin)
Chain of Phosphatidylinositol 4,5-bisphosphate 3-kinase catalytic subunit alpha isoform (P42336 whole entry, canonical isoform): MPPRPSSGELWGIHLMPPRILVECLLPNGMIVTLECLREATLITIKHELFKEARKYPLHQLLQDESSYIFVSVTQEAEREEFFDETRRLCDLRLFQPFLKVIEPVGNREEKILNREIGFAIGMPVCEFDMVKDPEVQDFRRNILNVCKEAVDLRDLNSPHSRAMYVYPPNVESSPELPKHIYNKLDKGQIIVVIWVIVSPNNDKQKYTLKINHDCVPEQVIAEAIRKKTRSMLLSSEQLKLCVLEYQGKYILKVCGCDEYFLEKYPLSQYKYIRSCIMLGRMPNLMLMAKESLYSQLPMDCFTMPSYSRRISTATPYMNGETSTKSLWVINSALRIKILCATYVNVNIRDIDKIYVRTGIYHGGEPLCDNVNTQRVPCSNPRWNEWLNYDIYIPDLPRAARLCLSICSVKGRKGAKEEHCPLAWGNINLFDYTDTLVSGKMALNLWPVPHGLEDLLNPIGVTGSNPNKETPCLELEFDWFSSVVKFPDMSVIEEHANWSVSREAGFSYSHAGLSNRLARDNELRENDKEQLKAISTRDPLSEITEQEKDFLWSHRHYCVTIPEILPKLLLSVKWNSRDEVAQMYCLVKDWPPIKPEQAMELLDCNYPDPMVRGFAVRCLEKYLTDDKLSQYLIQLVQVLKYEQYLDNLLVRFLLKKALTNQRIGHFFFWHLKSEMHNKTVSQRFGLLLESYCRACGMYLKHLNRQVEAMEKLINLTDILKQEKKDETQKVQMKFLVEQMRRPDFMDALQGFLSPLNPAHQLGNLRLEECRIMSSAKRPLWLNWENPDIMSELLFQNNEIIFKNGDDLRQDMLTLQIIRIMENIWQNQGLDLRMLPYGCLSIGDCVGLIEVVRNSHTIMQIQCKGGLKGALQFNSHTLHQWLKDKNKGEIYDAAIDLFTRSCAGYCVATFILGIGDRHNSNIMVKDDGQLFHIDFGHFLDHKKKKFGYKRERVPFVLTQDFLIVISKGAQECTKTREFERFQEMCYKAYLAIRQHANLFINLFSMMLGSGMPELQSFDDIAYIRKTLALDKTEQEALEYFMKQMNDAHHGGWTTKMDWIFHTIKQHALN

[10] = target: Phosphatidylinositol 4,5-bisphosphate 3-kinase catalytic subunit gamma isoform (Homo sapiens, UniProt P48736); experiment: Inhibition of PI3Kgamma (unknown origin)
Chain of Phosphatidylinositol 4,5-bisphosphate 3-kinase catalytic subunit gamma isoform (P48736 whole entry, canonical isoform): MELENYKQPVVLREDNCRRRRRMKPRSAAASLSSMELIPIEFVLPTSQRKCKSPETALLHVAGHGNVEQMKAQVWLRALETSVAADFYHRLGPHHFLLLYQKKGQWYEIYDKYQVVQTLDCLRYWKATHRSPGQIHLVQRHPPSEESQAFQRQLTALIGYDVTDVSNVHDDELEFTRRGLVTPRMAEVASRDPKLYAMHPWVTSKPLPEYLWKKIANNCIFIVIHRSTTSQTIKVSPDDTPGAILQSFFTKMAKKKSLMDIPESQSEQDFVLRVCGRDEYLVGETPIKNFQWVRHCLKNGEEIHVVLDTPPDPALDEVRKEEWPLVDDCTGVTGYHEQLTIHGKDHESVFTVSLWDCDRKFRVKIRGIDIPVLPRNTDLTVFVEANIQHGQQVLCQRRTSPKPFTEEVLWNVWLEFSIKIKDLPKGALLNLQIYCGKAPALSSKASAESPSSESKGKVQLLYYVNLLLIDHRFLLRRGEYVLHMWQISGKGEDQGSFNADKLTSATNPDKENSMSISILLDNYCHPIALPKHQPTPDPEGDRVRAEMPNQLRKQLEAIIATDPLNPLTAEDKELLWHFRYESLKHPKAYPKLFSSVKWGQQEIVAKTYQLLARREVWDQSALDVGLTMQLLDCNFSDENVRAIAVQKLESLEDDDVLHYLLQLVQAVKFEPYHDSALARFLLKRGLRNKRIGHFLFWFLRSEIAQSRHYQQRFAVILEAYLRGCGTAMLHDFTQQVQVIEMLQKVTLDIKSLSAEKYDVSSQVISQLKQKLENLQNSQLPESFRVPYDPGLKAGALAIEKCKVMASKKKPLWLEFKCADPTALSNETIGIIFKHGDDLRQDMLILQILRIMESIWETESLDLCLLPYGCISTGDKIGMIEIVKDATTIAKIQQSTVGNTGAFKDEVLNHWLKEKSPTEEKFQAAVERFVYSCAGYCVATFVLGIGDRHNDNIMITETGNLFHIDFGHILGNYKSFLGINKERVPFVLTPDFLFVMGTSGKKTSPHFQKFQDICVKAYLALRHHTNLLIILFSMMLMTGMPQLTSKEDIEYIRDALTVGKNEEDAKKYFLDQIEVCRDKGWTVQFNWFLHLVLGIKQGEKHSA

[11] = target: T2, Phosphatidylinositol 4,5-bisphosphate 3-kinase catalytic subunit delta isoform (Homo sapiens, UniProt O00329); experiment: Inhibition of PI3Kdelta (unknown origin)
T2 sequence (O00329 whole entry): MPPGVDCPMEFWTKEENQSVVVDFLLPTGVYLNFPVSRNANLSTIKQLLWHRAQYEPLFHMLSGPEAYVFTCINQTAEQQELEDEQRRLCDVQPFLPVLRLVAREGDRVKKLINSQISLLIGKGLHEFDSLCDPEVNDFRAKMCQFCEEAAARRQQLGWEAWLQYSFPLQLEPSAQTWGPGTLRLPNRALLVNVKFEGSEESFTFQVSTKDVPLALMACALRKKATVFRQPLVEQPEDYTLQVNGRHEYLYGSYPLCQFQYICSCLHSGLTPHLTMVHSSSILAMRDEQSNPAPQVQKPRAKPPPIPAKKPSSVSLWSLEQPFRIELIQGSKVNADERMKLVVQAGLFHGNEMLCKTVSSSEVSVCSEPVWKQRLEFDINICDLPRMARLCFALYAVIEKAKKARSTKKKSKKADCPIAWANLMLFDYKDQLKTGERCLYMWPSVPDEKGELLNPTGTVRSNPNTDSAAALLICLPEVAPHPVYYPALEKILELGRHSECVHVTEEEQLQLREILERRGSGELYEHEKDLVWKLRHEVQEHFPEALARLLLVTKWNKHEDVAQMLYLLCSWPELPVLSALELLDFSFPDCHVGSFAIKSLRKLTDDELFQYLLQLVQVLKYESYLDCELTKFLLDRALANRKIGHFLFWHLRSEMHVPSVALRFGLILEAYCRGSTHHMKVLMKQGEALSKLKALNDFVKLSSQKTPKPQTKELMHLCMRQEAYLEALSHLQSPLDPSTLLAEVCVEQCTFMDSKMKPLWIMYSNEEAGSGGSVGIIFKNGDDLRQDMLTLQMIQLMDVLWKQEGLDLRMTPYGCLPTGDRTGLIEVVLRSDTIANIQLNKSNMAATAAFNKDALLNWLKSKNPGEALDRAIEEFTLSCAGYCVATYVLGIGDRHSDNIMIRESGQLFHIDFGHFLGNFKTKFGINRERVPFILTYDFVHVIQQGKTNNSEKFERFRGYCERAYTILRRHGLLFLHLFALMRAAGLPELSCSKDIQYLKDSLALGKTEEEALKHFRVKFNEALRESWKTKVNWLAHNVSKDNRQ

MDA-MB-231 = assay type: functional, cell-based; conditions: Homo sapiens, MDA-MB-231, 48 h
MCF7 = experiment: Antiproliferative activity against human MCF7 cells assessed as reduction in cell viability measured after 48 hrs by MTT assay; assay type: functional, cell-based; conditions: MCF7, 48 h
[12] = target: Phosphatidylinositol 4,5-bisphosphate 3-kinase catalytic subunit beta isoform (Homo sapiens, UniProt P42338); experiment: Inhibition of PI3Kbeta (unknown origin)
Chain of Phosphatidylinositol 4,5-bisphosphate 3-kinase catalytic subunit beta isoform (P42338 whole entry, canonical isoform): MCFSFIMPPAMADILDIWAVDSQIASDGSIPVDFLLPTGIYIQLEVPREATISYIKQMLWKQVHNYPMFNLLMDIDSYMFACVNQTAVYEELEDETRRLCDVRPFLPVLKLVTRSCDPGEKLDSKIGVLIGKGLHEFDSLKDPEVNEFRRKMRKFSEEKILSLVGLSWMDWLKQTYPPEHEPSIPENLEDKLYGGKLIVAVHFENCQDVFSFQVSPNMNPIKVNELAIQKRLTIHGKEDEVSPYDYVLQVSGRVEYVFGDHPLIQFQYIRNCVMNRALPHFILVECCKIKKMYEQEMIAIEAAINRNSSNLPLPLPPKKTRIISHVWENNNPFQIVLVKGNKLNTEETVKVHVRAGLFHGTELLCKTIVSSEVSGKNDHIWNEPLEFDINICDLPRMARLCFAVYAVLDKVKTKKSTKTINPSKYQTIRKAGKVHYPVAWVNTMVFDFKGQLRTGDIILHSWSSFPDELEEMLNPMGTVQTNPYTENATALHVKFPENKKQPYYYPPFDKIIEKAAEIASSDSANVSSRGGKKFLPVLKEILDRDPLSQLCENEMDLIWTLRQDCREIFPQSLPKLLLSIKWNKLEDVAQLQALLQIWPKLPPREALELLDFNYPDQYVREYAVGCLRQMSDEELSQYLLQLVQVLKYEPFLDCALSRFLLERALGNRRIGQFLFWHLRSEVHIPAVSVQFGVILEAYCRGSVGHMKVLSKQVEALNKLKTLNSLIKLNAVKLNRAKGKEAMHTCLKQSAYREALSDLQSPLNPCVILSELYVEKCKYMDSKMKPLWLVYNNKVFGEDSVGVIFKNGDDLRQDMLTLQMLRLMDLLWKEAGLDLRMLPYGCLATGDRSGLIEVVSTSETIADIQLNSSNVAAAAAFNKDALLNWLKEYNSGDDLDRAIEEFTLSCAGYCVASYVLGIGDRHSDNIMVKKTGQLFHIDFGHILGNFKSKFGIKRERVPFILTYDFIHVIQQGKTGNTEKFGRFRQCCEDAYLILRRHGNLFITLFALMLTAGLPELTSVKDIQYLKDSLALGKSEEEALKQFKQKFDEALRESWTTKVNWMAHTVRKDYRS

Chain of Voltage-gated inwardly rectifying potassium channel KCNH2 (Q12809 whole entry): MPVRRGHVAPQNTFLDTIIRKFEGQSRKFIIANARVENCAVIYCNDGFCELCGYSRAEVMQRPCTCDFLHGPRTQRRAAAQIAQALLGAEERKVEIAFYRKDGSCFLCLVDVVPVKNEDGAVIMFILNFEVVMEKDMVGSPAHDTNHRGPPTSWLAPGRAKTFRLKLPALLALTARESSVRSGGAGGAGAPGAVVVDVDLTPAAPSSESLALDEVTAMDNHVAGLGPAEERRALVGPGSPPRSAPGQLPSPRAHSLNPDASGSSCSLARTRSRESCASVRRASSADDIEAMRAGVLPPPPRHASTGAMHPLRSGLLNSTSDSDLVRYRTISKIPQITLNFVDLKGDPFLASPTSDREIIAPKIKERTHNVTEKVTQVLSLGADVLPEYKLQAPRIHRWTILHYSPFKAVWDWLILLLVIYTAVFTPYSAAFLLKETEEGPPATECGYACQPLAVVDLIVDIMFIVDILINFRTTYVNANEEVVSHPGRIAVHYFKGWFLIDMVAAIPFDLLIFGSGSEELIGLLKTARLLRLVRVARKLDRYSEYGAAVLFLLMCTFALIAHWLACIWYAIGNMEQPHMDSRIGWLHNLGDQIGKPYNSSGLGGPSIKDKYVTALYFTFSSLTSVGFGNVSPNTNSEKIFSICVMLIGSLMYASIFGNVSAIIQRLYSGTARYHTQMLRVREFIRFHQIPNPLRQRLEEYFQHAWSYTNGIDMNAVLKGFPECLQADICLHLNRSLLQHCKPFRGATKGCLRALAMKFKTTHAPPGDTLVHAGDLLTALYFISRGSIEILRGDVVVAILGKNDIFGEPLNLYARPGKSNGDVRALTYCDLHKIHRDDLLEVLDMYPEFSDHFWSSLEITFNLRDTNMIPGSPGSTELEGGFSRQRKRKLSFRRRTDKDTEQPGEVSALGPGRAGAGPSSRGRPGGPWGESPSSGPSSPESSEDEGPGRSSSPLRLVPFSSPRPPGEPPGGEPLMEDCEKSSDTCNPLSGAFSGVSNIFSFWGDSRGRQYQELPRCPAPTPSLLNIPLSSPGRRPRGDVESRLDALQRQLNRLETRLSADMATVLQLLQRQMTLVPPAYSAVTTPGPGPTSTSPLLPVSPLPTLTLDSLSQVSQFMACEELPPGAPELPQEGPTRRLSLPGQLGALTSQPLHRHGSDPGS

NC(=O)c1cc(Cl)c2c(Cl)c(C3CC3)n(C3CCCNC3)c2n1 (centres undefined)
IC50 (KG-1): < 100 nM
IC50 [1]: 1000 nM

NC(=O)c1cc(Cl)c2c(Cl)c(I)n(C3CCCNC3)c2n1 (centres undefined)
IC50 (KG-1): < 100 nM
IC50 [1]: 1000 nM

NC(=O)c1cc(Cl)c2c(Cl)c(C#CC3CC3)n(C3CCCNC3)c2n1 (centres undefined)
IC50 (KG-1): < 100 nM

Cc1cc(-n2cc(C(=O)N3CCOCC3)c3ccc(N[C@@H](C)c4ccc(F)cn4)nc32)[nH]n1
IC50 [2]: 2.5 nM
efflux ratio at 1.5 h, 5 µM [3]: 18

COc1ccc(-c2cnc3[nH]cc(C#Cc4cccnc4)c3c2)cc1OC
EC50 (Dengue virus): 720 nM

CN1CCN(Cc2ccc(NC(=O)c3cccc(/N=N/c4cnc5[nH]ccc5c4)c3)cc2C(F)(F)F)CC1
IC50 [4]: 50 nM

Cn1cc(-c2nc(N)nnc2-c2c[nH]c3ccc(F)cc23)c2cc(Br)cnc21
IC50 (PSN1): 3300 nM
IC50 [5]: 30 nM

Oc1ccc(-c2cnc3[nH]ccc3c2)cc1
IC50 [6]: 1470 nM

Cn1cc(-c2nnc(N)nc2-c2c[nH]c3ccc(Br)cc23)c2cc(Br)cnc21
IC50 (PSN1): 3300 nM
IC50 [5]: 30 nM

NC(=O)c1ccc(-c2cc3cccnc3[nH]2)cc1
IC50 [6]: 90 nM

O=C(c1ccc(-c2cc3cccnc3[nH]2)cc1)N1CCOCC1
IC50 [7]: 80 nM
IC50 [8]: > 20000 nM

Cn1cc(-c2nc(N)nnc2-c2c[nH]c3ccc(Br)cc23)c2cc(Br)cnc21
IC50 (PSN1): 3300 nM
IC50 [5]: 30 nM

Cn1cc(-c2nnc(N)nc2-c2c[nH]c3ccc(F)cc23)c2cc(Br)cnc21
IC50 (PSN1): 3300 nM
IC50 [5]: 30 nM

O=S(=O)(Nc1cc(-c2cnc3[nH]cc(-c4ccc(N5CCOCC5)nc4)c3c2)cnc1Cl)c1ccccc1
IC50 [9]: 0.3 nM
IC50 [10]: 0.3 nM
IC50 [11]: 0.3 nM
IC50 (MDA-MB-231): 450 nM
IC50 (MCF7): 1190 nM
IC50 [12]: 0.3 nM

Cc1cc(-n2cc(C(=O)N3CCO[C@@H](C)C3)c3ccc(OC(C)c4ccc(F)cn4)nc32)n[nH]1 (some centres undefined)
efflux ratio at 1.5 h, 5 µM [3]: 1

O=S(=O)(Nc1cc(-c2cnc3[nH]cc(-c4cnn(CCN5CCOCC5)c4)c3c2)cnc1Cl)c1ccccc1
IC50 [9]: 0.3 nM
IC50 [10]: 0.3 nM
IC50 [11]: 0.3 nM
IC50 (MDA-MB-231): 1200 nM
IC50 (MCF7): 6000 nM
IC50 [12]: 0.3 nM
